From patent publication EP4273147A1, “SUBSTITUTED SPIROLACTAMS, SALTS THEREOF AND THEIR USE AS HERBICIDALLY ACTIVE SUBSTANCES” (Bayer Aktiengesellschaft, priority 2022, dated 2023) come the findings set out here.

In test [1] the test system is ECHCG. Put plainly: Herbicidal pre-emergence action (Table A2). The test is classed as in vivo, Echinochloa crus-galli. The following applies: visual grading after ca. 3 weeks. In short, it runs like this: (§1)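 Sandy loam filled the pots; weed seeds went in as paired sowings of one grass-type and one broadleaf species, then were covered with soil.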
For a further test, the system named is LOLRI. Put plainly: Herbicidal pre-emergence action (Table A3). The test is classed as in vivo, Lolium rigidum. The conditions noted are these: application rate 1280 g/ha; visual grading after ca. 3 weeks. In short, it runs like this: as §1
The test system of a further test is SETVI. Put plainly: Herbicidal pre-emergence action (Table A5). In kind it is in vivo, Setaria viridis. The following applies: visual grading after ca. 3 weeks. In short, it runs like this: as §1
Another test deals with STEME. Description: Herbicidal pre-emergence action (Table A6). The conditions noted are these: application rate 1280 g/ha; visual grading after ca. 3 weeks. The test is classed as in vivo, Stellaria media. In short, it runs like this: as §1
Test [2] has as its system POAAN. Description: Herbicidal pre-emergence action (Table A7). The following applies: visual grading after ca. 3 weeks. In kind it is in vivo, Poa annua. The procedure, abridged: as §1
Test [3] relates to ECHCG. Put plainly: Herbicidal post-emergence action (Table B3). In kind it is in vivo, Echinochloa crus-galli. The following applies: application rate 1280 g/ha; rated visually after about 3 weeks. In short, it runs like this: (§2)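 Visual rating against untreated plants (0% = as control, 100% = dead) made roughly 3 weeks after application. Weed species were grown in sandy loam pots under greenhouse conditions and sprayed at the one-leaf stage, 2–3 weeks post-sowing.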

The next test relates to VERPE. Put plainly: Herbicidal post-emergence action (Table B10). The test is classed as in vivo, Veronica persica. The following applies: application rate 1280 g/ha. The method, then: (§3) Seeds of mono- and dicotyledonous weed plants were placed in plastic pots in sandy loam soil (doubly sown with in each case one species of mono- or dicotyledonous weed plants per pot), covered with soil and cultivated in a greenhouse under controlled growth conditions. 2 to 3 weeks after sowing, the test plants were treated at the one-leaf stage. […] After the test plants had been kept in the greenhouse under optimum growth conditions for about 3 weeks, the activity of the preparations was rated visually in comparison to untreated controls. For example, 100% activity = the plants have died, 0% activity = like control plants.

The test system of test [4] is AMARE. Put plainly: Herbicidal post-emergence action (Table B11). The test is classed as in vivo, Amaranthus retroflexus. The conditions noted are these: application rate 1280 g/ha. How it is done: as §3
The subject of test [5] is MATIN. Put plainly: Herbicidal pre-emergence action (Table A4). The test is classed as in vivo, Matricaria inodora. The following applies: application rate 1280 g/ha; visual grading after ca. 3 weeks. The procedure, abridged: as §1
In test [6] the test system is AMARE. Put plainly: Herbicidal pre-emergence action (Table A8). The test is classed as in vivo, Amaranthus retroflexus. The conditions noted are these: application rate 1280 g/ha; visual grading after ca. 3 weeks vs untreated controls (100% = plants have died off, 0% = as control plants). From the text:
Seeds of mono- and dicotyledonous weed plants were sown in plastic pots (double sowings with one species of mono- and one species of dicotyledonous weed plants per pot), in sandy loam, and covered with soil.

The subject of a further test is KCHSC. Description: Herbicidal pre-emergence action (Table A10). The following applies: application rate 1280 g/ha; visual grading after ca. 3 weeks. In kind it is in vivo, Kochia scoparia. The procedure, abridged: as §1
A further test has as its system DIGSA. Put plainly: Herbicidal pre-emergence action (Table A12). In kind it is in vivo, Digitaria sanguinalis. The following applies: application rate 1280 g/ha; visual grading after ca. 3 weeks. In short, it runs like this:
as §1

Test [7] deals with MATIN. Description: Herbicidal post-emergence action (Table B6). The test is classed as in vivo, Matricaria inodora. The following applies: application rate 1280 g/ha; rated visually after about 3 weeks. How it is done: as §3
Test [8] concerns POAAN. Put plainly: Herbicidal post-emergence action (Table B7). The conditions noted are these: application rate 1280 g/ha. In kind it is in vivo, Poa annua. In short, it runs like this: as §2
The subject of a further test is ALOMY. Put plainly: Herbicidal pre-emergence action (Table A9). The test is classed as in vivo, Alopecurus myosuroides. The following applies: application rate 1280 g/ha; visual grading after ca. 3 weeks. The procedure, abridged: as §1

Structures are written as SMILES.

Consider `O=C1N(Cc2ccccc2)CCCC12CCCN(Cc1c(F)cccc1F)C2=O` (racemic) [I-068], for which the “pre-emergence activity against ECHCG” value in the test with ECHCG [1] (application rate 320 g/ha) is given as 100%. The “pre-emergence activity against LOLRI” value with LOLRI was 90%. In addition, the “pre-emergence activity against SETVI” value in the test on SETVI (application rate 320 g/ha) is on record as 100%. For the same molecule, the “pre-emergence activity against STEME” value with STEME is given as 90%. The “pre-emergence activity against POAAN” value in the test on POAAN [2] (application rate 320 g/ha) amounted to 100%. Also, in the test on ECHCG [3], the “post-emergence activity against ECHCG” value came to 90%. In addition, the “post-emergence activity against VERPE” value in the test with VERPE is given as 90%. In the test on AMARE [4], the “post-emergence activity against AMARE” value is 100%.
As for `O=C1N(Cc2ccccc2)CCC12CCCN(Cc1cccc(F)c1F)C2=O` (racemic) [I-084], the “pre-emergence activity against ECHCG” value in the test on ECHCG [1] (application rate 1280 g/ha) turned out to be 100%. Moreover, in the test with LOLRI, the “pre-emergence activity against LOLRI” value is 100%. Besides, the “pre-emergence activity against MATIN” value in the test on MATIN [5] is listed as 90%. Further, the “pre-emergence activity against SETVI” value with SETVI (application rate 1280 g/ha) was 100%. Besides, the “pre-emergence activity against STEME” value in the test on STEME worked out at 90%. Also, in the test with POAAN [2] (application rate 320 g/ha), the “pre-emergence activity against POAAN” value was found to be 100%. The “pre-emergence activity against AMARE” value in the test on AMARE [6] is on record as 90%. Besides, the “pre-emergence activity against KCHSC” value with KCHSC is reported as 90%. For the same molecule, the “pre-emergence activity against DIGSA” value with DIGSA is 100%.
For `COc1ccccc1CN1CCCC2(CCCN(Cc3ccccc3Cl)C2=O)C1=O` (racemic) [I-095], in the test with ECHCG [1] (application rate 320 g/ha), the “pre-emergence activity against ECHCG” value worked out at 100%. In the test with SETVI (application rate 1280 g/ha), the “pre-emergence activity against SETVI” value is given as 90%. Besides, the “post-emergence activity against ECHCG” value with ECHCG [3] was 90%. The “post-emergence activity against VERPE” value in the test with VERPE is listed as 90%. Moreover, in the test with AMARE [4], the “post-emergence activity against AMARE” value was 90%.
On to `O=C1N(Cc2c(F)cccc2F)CCC12CCN(Cc1c(F)cccc1F)C2=O` (racemic) [I-101], for which the “pre-emergence activity against ECHCG” value in the test with ECHCG [1] (application rate 1280 g/ha) amounted to 90%. In addition, the “pre-emergence activity against LOLRI” value in the test with LOLRI was 90%. Further, in the test on MATIN [5], the “pre-emergence activity against MATIN” value was found to be 90%. Moreover, the “pre-emergence activity against SETVI” value with SETVI (application rate 1280 g/ha) is 90%. Moreover, in the test on POAAN [2] (application rate 1280 g/ha), the “pre-emergence activity against POAAN” value is given as 100%. The “pre-emergence activity against KCHSC” value with KCHSC is on record as 90%. Also, the “post-emergence activity against ECHCG” value in the test with ECHCG [3] was determined as 90%. In the test on MATIN [7], the “post-emergence activity against MATIN” value came to 90%. Further, the “post-emergence activity against POAAN” value in the test on POAAN [8] is reported as 90%. In the test with AMARE [4], the “post-emergence activity against AMARE” value is recorded as 90%.
Consider `O=C1N(Cc2ccccn2)CCCC12CCCN(Cc1cccc(F)c1F)C2=O` (racemic) [I-108], for which the “pre-emergence activity against ECHCG” value with ECHCG [1] (application rate 320 g/ha) was 90%. Besides, the “pre-emergence activity against MATIN” value in the test on MATIN [5] is 90%. Besides, in the test on SETVI (application rate 1280 g/ha), the “pre-emergence activity against SETVI” value worked out at 90%. In the test on POAAN [2] (application rate 1280 g/ha), the “pre-emergence activity against POAAN” value came out at 90%. Besides, in the test with ALOMY, the “pre-emergence activity against ALOMY” value is 90%. For the same molecule, the “post-emergence activity against AMARE” value in the test with AMARE [4] was found to be 90%.
